Source: ChEMBL document CHEMBL1201862, “PubChem BioAssay data set” (2004)
Activity calls are given as the source filed them.

Key:
[1] = molecular target: T1, Heat shock factor protein 1 (Mus musculus, UniProt P38532); assay: inhibition of MG132-induced HSE-luciferase signal, confirmation, cell-based, NIH3T3, luminescence, dose retest (AID 2382); type: functional;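 also: NIH3T3 fibroblasts with HSF1-driven luciferase reporter stressed by proteasome inhibitor MG132; luminescence from HSF1-driven luciferase expression after 8 hours of MG132 stress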
T1 sequence (P38532 whole entry): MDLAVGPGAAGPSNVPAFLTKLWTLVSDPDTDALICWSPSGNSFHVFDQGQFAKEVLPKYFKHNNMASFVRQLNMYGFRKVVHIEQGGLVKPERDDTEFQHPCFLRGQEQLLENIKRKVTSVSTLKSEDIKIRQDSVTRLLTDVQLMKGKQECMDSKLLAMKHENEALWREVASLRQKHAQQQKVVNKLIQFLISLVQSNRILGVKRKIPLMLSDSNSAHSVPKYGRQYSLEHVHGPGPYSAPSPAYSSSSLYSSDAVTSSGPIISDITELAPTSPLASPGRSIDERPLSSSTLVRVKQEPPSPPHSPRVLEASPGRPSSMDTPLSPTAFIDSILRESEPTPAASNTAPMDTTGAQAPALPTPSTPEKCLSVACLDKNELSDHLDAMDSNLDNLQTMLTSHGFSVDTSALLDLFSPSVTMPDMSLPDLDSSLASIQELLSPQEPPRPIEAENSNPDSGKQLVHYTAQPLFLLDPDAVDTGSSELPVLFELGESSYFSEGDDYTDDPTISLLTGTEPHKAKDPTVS

[2] = molecular target: G-protein coupled receptor 55 (Homo sapiens, UniProt Q9Y2T6); assay: GPR55 antagonists blocking LPI-driven arrestin recruitment, primary screen, imaging, U2OS, beta-arrestin-GFP, LPI agonist (AID 2013); type: functional;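 also: antagonist potency measured as reduced agonist-driven arrestin aggregation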
Chain of G-protein coupled receptor 55 (Q9Y2T6 whole entry): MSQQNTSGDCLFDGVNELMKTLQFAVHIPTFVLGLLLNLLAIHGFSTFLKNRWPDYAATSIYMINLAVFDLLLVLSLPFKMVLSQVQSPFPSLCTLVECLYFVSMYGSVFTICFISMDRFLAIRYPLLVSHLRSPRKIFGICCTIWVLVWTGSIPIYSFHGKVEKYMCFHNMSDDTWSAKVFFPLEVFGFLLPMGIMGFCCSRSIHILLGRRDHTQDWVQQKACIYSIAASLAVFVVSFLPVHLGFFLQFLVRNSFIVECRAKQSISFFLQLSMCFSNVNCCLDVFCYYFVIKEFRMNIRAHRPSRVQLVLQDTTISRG

[3] = molecular target: T2, Sphingosine 1-phosphate receptor 4 (Homo sapiens, UniProt O95977); assay: Late stage fluorescence dose response cell-based screening assay for antagonists of the Sphingosine 1-Phosphate Receptor 4 (S1P4). [Related pubchem assays: 1524 (Confirmation screen (S1P4 antagonists).), 1510 (Primary screen (S1P4 antagonists).), 1853 (Summary AID (S1P4 antagonists).), 1692 (Dose response screen (S1P4 antagonists).)]; type: functional
T2 sequence (O95977 whole entry): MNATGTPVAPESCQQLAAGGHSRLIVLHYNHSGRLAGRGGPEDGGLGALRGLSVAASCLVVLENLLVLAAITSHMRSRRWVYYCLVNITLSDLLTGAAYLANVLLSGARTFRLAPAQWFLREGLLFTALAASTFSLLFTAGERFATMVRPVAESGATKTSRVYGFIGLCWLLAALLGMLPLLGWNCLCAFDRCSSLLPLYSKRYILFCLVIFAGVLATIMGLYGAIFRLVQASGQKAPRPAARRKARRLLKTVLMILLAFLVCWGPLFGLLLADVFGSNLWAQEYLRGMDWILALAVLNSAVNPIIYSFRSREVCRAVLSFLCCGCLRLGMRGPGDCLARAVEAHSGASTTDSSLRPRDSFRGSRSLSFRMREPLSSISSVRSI

[4] = molecular target: Kappa-type opioid receptor (Homo sapiens, UniProt P41145); type: functional
Chain of Kappa-type opioid receptor (P41145 whole entry): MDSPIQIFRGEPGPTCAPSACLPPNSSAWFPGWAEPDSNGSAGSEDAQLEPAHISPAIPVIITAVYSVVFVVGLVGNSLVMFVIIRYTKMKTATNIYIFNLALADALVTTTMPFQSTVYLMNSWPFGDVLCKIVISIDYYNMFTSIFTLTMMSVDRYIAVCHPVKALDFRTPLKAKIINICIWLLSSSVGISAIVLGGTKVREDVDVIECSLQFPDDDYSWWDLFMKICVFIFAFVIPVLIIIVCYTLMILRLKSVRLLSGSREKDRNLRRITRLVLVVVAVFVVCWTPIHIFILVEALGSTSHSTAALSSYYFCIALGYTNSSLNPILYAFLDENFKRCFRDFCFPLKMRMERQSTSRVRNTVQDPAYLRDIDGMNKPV

[5] = molecular target: Sphingosine 1-phosphate receptor 1 (Homo sapiens, UniProt P21453); type: functional;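 also: Tango beta-arrestin reporter U2OS cells stimulated with S1P near its EC80; inhibitor potency meaning antagonism of receptor activation by the natural agonist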
Chain of Sphingosine 1-phosphate receptor 1 (P21453 whole entry): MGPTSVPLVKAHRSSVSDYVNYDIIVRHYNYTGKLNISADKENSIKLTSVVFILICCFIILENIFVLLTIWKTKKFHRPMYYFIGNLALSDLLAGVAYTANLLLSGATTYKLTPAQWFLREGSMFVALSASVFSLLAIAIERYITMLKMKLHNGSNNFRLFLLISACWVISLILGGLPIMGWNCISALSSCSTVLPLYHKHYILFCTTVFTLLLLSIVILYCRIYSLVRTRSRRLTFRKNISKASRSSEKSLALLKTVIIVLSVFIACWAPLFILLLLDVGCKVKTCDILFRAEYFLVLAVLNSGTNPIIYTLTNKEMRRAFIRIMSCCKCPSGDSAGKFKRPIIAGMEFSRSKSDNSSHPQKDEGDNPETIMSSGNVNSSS

[6] = Shn3 3'UTR reporter inhibitors, dose response, cell-based, Clone20 osteoblasts, firefly luciferase, cherry-picked (AID 624132); type: functional;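 also: firefly luciferase luminescence from reporter carrying the Shn3 3'UTR in osteoblasts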
[7] = HepG2 cell cytotoxicity, dose response, cytotoxicity control for Shn3 inhibitor project, CellTiter-Glo, cherry-picked (AID 624134); type: functional, cell-based
[8] = control 3'UTR Renilla luciferase suppression, dose response, counter-screen for Shn3 inhibitor project, cell-based, Clone20-Shn3RL, cherry-picked (AID 624133); type: functional
Paired box protein Pax-8 = Paired box protein Pax-8 (Homo sapiens, UniProt Q06710); assay: inhibitors of PAX8-driven TPO luciferase reporter, dose response, RMG-I cells, cherry-pick (AID 687027); type: functional, cell-based;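 also: luciferase reporter driven by Pax8 target thyroperoxidase promoter measured by SteadyGlo luminescence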
Chain of Paired box protein Pax-8 (Q06710 whole entry): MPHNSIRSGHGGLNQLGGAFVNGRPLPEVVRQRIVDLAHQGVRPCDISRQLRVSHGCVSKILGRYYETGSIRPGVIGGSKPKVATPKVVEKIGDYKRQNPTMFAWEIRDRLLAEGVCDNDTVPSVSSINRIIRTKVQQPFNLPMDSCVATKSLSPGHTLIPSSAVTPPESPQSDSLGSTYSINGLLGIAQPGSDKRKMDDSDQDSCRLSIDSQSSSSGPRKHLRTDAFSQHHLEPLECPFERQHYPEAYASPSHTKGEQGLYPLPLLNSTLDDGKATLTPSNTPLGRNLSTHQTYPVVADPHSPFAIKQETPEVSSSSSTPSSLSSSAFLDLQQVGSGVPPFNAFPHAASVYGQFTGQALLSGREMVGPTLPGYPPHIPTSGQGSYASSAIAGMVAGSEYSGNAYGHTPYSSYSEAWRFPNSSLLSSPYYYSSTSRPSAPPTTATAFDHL

[9] = A549 cell cytotoxicity, dose response, cytotoxicity control, plate reader, cherry-pick, antagonist series (AID 743412); type: functional, cell-based
[10] = HEK293 cell cytotoxicity, dose response, cytotoxicity control, plate reader, cherry-picked samples (AID 743446); type: functional, cell-based
Caspase-3 = molecular target: T3, Caspase-3 (Homo sapiens, UniProt P42574); assay: SAR Analysis of small molecule inhibitors of Sentrin-specific proteases (SENPs) using a Caspase-3 Selectivity assay. [Related pubchem assays (depositor defined):AID2540, AID2599, AID434973, AID489001]; type: functional
T3 sequence (P42574 whole entry): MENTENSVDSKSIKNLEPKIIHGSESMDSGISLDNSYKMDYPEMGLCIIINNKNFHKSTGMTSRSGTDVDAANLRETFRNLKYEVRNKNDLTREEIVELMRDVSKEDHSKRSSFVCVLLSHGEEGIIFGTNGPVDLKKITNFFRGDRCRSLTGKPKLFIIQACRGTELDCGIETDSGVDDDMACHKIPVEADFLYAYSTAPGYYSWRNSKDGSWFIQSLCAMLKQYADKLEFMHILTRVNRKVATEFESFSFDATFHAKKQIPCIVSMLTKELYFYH

With `COc1cc(NC(=O)Cn2ncc(Cl)c(Cl)c2=O)c(C)cc1[N+](=O)[O-]` the EC50 [1] was 4.33 µM (active), the IC50 [2] was 3.52 µM (active) and the IC50 [3] was 6.74 µM (not active). The IC50 [4] was 13.9 µM, the IC50 [5] was > 49.8 µM (not active) and the AC50 [6] was 3.44 µM (active). The AC50 [7] was 40.9 µM (active), the AC50 [8] was 3.3 µM (active) and the AC50 (Paired box protein Pax-8) was 4.62 µM (active). The AC50 [9] was 5.78 µM (active) and the AC50 [10] was 6.28 µM (active).
With `Cc1ccc(C)c(S(=O)(=O)N2CCN(Cc3ccc(O)c4ncccc34)CC2)c1` the AC50 [6] was 2.84 µM (active), the AC50 [7] was 5.3 µM (active) and the AC50 [8] was 1.23 µM (active).
With `Oc1ccc(/C=N\Nc2cc(N3CCOCC3)nc(N3CCOCC3)n2)c(O)c1` the IC50 (Caspase-3) was > 99 µM (inactive) and the AC50 (Paired box protein Pax-8) was 20.4 µM (active).
